Our source for the RP-LC retention time values is the METLIN SMRT retention time set (Domingo-Almenara et al. 2019).

This data set is described as follows: gradient 5% acetonitrile 3 min, to 50% in 2 min, to 85% in 15 min, held 3 min, 100 µL/min. The note with it: column: Zorbax Extend-C18 2.1 x 50 mm; eluents: water / acetonitrile, 0.1% formic acid. The gist of the method:
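In both positive and negative ionization mode, a quadrupole time-of-flight mass spectrometer coupled to HPLC analyzed pure standards run in mixtures of ~100 molecules. The Zorbax Extend-C18 column (2.1 × 50 mm, 1.8 μm) was operated at 100 μL/min with water and acetonitrile, each containing 0.1% formic acid. The dead volume was 40 μL and the dwell volume 900 μL. Retention time came from adduct peaks that were computationally picked and individually inspected by hand.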
Consider `O=C(c1cc2occc2c(Nc2ccc(Cl)cc2)n1)N1CCN(c2ccccn2)CC1`, for which the RP-LC retention time was 713 s.
The figure for `COc1cccc(CNC(=O)N2CCCC2c2cc(C(C)C)on2)c1` (stereo unspecified) is 832 s; for `CCCCn1c(=O)c2ccccc2n(Cc2nc(-c3cccc(Cl)c3)no2)c1=O` it is 1250 s; for `O=C(Cn1nc2c3sc(N4CCCCC4)nc3ncn2c1=O)Nc1ccc(Cl)cc1` it is 832 s.
`CC(=O)Nc1ccc(S(=O)(=O)N2CC=C(c3cn(C)c4ncccc34)CC2)cc1` yielded an RP-LC retention time of 764 s.
The value for `CCn1nccc1-c1cccc(-c2noc(-c3ccc(F)cc3)n2)c1` was 1240 s; that for `CC(C)n1cc(C#N)c(N)n1` was 658 s.
In turn, `CCNC(=O)N1CC=C(C(=O)Nc2cccc(F)c2)CC1` came in with an RP-LC retention time of 673 s.
For the molecule `O=S(=O)(Cc1ccc(Cl)cc1)N1CCC(n2c(-c3ccco3)nc3cccnc32)C1` (stereo unspecified), the RP-LC retention time was 927 s.
As for `CN1CCN(C(=O)Nc2ccc([N+](=O)[O-])cc2)CC1`, the RP-LC retention time stood at 634 s.
In the case of `Cc1cccc2c(=O)n(C)c(CCC(=O)NCc3ccc(Br)cc3)nc12`, the RP-LC retention time amounted to 887 s.
As to `CC(C)Cn1nc2ccc(S(=O)(=O)N3CCOCC3)cn2c1=O`, the RP-LC retention time turned out to be 732 s.
With `COc1cccc(Nc2c(-c3cccc(O)c3)nc3cnccn23)c1`, the RP-LC retention time turned out to be 929 s.
The figure for `Cc1ccc(C(=O)NCc2[nH]nc3ccccc23)cc1C` is 788 s; for `Cc1ccc(S(=O)(=O)N2CCC3(CC2)CN(C)CC3c2noc(C3CC3)n2)cc1` (stereo unspecified) it is 638 s.
`Cn1c(=O)c(=O)n(C)c2cc(N3CCCCC3)c(NC(=O)CN3CCCCC3)cc21` returned an RP-LC retention time of 592 s.
In turn, `CCOc1ccc2nc(NC(=O)COc3nccc(C)n3)sc2c1` yielded an RP-LC retention time of 744 s.
`Cc1c(NC(=O)C(C)C)c(=O)n(-c2ccccc2)n1C` displayed an RP-LC retention time of 745 s.
Molecule `O=C(Nc1cccc(F)c1)C1CCCN(c2nc3ccccc3nc2C(F)(F)F)C1` (stereo unspecified) registered an RP-LC retention time of 1210 s.
Molecule `COc1ccc(C2CC(=O)c3c(C)nc(N4CCN(CCO)CC4)nc3C2)cc1` (stereo unspecified) had an RP-LC retention time of 638 s.
On to `Cc1nc(Cn2cccc2C(=O)Nc2ccc(C)c(Cl)c2)no1`, for which the RP-LC retention time came to 954 s.
Consider `O=C(c1ccccc1Cl)N1CCC(Cc2nnc(-c3ccccc3)o2)CC1`, for which the RP-LC retention time came out at 864 s.
The figure for `CC(C(=O)N1CCCN(c2nc3cccnc3o2)CC1)c1ccccc1` (stereo unspecified) is 718 s; for `COc1cc2c(cc1OC)C(C(=O)NCCCN1CCOCC1)C(c1cccs1)N(C)C2=O` (stereo unspecified) it is 596 s.
Regarding `Cc1cc(C)c(S(=O)(=O)N2CCC(c3noc(-c4ccccc4)n3)CC2)c(C)c1`, the RP-LC retention time was determined as 1350 s.
The value for `CNC(=O)N1CCc2nn(Cc3ccccc3)c(=O)n2CC1` was 614 s; that for `CC1CCN(c2cncnc2-n2cc(NC(=O)NC(C)(C)C)cn2)CC1` was 722 s.
In the case of `O=C(NCCc1csc(-c2cccs2)n1)C1CCN(C(=O)c2ccc(F)c(F)c2)CC1`, the RP-LC retention time turned out to be 809 s.
For `Cc1cc(-c2c(C)sc(C)c2S(=O)(=O)Nc2ccc(C)c(F)c2)n[nH]1`, the RP-LC retention time is 1080 s.
The value for `Cc1ccc(C)c(OCC(=O)Nc2nc(-c3ccc(Br)cc3)cs2)c1C` was 1430 s; that for `Cn1nccc1-c1cccc(-c2noc(-c3ccc(F)cc3F)n2)c1` was 1120 s.
Regarding `COC(=O)c1cc(S(=O)(=O)N2CCCC2C(=O)Nc2ccc(Cl)cc2C)cn1C` (stereo unspecified), the RP-LC retention time is 958 s.
Molecule `CCn1nccc1C1CCCN1C(=O)c1c(Cl)cnn1C` (stereo unspecified) came in with an RP-LC retention time of 677 s.
The molecule `CN(C)C(=O)c1csc(S(=O)(=O)N2CCC(C(=O)Nc3ccccc3F)CC2)c1` returned an RP-LC retention time of 770 s.
On to `Cc1noc(C)c1CNC(=O)COc1ccc(F)cc1`, for which the RP-LC retention time amounted to 711 s.
Take `CC1(C(=O)NCc2ccc(F)cc2)CN(S(=O)(=O)c2ccccc2)CC(=O)N1C1CC1` (stereo unspecified): the RP-LC retention time stood at 816 s.
`Cc1ccc(C)c(C(=O)N2CCN(c3cc(C)nc(N4CCOCC4)n3)CC2)c1`: the RP-LC retention time came out at 637 s.
With `COc1cccc(CC(=O)N2CCC(C(=O)NCCc3csc(-c4cccs4)n3)CC2)c1`, the RP-LC retention time worked out at 770 s.
`CCn1ccc(C(=O)NC(C(=O)N2CCCc3ccccc32)c2ccccc2)n1` (stereo unspecified): the RP-LC retention time was 967 s.
The figure for `Cc1ccc(C2Cn3cnc(C(=O)N4CCC(C(=O)NC(C)c5ccccc5)CC4)c3CO2)cc1` (stereo unspecified) is 756 s; for `COC(=O)c1cccc(C(=O)Nc2ccc(C)c(C)c2)n1` it is 910 s.
The figure for `COc1cccc(-c2ccc(=O)n(Cc3nc(-c4ccccc4Br)no3)n2)c1` is 997 s; for `Cc1nc(CC(=O)Nc2nc(-c3ccc(Br)cc3)c(C)s2)cs1` it is 994 s; for `COc1ccc(-c2nc(-n3c(C)c4c(C)nnc(C)c4c3C)sc2C)cc1` it is 726 s.
`Cc1cc(C)cc(NC(=O)Cn2nc(C(=O)N3CCOCC3)c3ccccc32)c1` gave an RP-LC retention time of 819 s.
`CC1CN(C(=O)c2ccc(C#N)cc2)c2ccccc2O1` (stereo unspecified) had an RP-LC retention time of 914 s.
In turn, `CCCc1cc(SCc2ccc(C(=O)OC)cc2)ncn1` displayed an RP-LC retention time of 992 s.
For the molecule `C1CCCC(NC2=NCCO2)CCC1`, the RP-LC retention time was determined as 680 s.
Regarding `CN1CCN(C(=O)c2csc(N3CCN(c4cccc(Cl)c4)CC3)n2)CC1`, the RP-LC retention time is 690 s.
With `FC1(F)C[C@@H](CN2CCOCC2)N(Cc2cn[nH]c2-c2ccccc2)C1`, the RP-LC retention time was 765 s.
As to `COc1ccc(C2(C(=O)N3CCC(Oc4ccccc4-c4nc(C)no4)C3)CC2)cc1` (stereo unspecified), the RP-LC retention time stood at 880 s.
The value for `O=S(=O)(Cc1ccc(F)cc1)NCC1(c2ccccc2)CCOCC1` was 818 s; that for `COc1cccc(CNC(=O)C2CCCN(c3nccnc3Sc3ccccc3)C2)c1` (stereo unspecified) was 1100 s.
Molecule `COc1ccc(CNC(=O)CCc2nnc3c4cc(-c5ccccc5)nn4ccn23)cc1` displayed an RP-LC retention time of 728 s.
In the case of `COCCN(Cc1ccc(Cl)cc1)Cc1cc(=O)n2cc(C)ccc2n1`, the RP-LC retention time is 662 s.
The molecule `COC(=O)c1cc2c(=O)n(-c3nccs3)ccc2nc1C` yielded an RP-LC retention time of 896 s.
With `Cc1nn(CC(=O)NCCN(C)C2CCCCC2)c(=O)c2c(C)n(-c3ccccc3)nc12`, the RP-LC retention time is 653 s.
In the case of `COc1ccc(NC(=O)c2cn3c(n2)CCCC3)cc1Cl`, the RP-LC retention time is 609 s.
`CS(=O)(=O)c1nc2ccc(NS(=O)(=O)c3ccc4c(c3)CCC4)cc2s1` returned an RP-LC retention time of 987 s.
Molecule `CCOc1ccc(-c2csc(Cc3nc(-c4cccc(C)c4)no3)n2)cc1` came in with an RP-LC retention time of 1310 s.
Turning to `NC1=C(Br)C(=O)c2ncccc2C1=O`, the RP-LC retention time amounted to 599 s.
